# Source: US20020055174A1, “Complex for transferring an anionic substance of interest into a cell” (priority 2000, published 2002)
# Entries after “also recorded” stand apart in the source; their conditions may differ. Ends that are not written are not given here.
# Key:
# HeLa cells [1] = assay: Transfection in the presence of Bafilomycin A; assay type: cell-based; settings: 175 nM Bafilomycin A, 150 ng pTG11236
# Description: Transfection in the presence of Bafilomycin A: 6×10^4 HeLa cells were plated on 24 well plates. Cells were treated with 175 nM Bafilomycin A 30 min before and throughout the transfection (1 h incubation of cells with transfection mix in the absence of serum).
# Bafilomycin A is a specific inhibitor of the vacuolar proton pump. Treatment with Bafilomycin inhibits the acidification of late endosomes. HeLa cells were treated with Bafilomycin A (175 nM) 30 min before and throughout the transfection (1 h incubation with transfection complexes in the absence of serum). 6×10^4 cells were transfected with 150 ng pTG11236 using PEI or ppTG1. The luciferase assay was performed 1 day after transfection.
# [2] = tested on: WiDr, MDA-MB-435S, SW480 and LoVo; assay: Transfection of human tumor cell lines; assay type: cell-based; settings: ppTG1/plasmid pTG11236 complexes, luciferase day 1
# Description: WiDr (ATCC CCL-218), MDA-MB-435S (ATCC HTB-129), SW480 (ATCC CCL-228) and LoVo cell (CCL-229) were cultivated in the appropriate medium with 10% fetal calf serum, 1% gentamycine, 1% glutamine and 3 g/l glucose, in an incubator at 37° C. and 5% CO2.
# The transfection efficiencies with plasmid/ppTG1 complexes were tested in the human tumor cells WiDr, MDA-MB-435S, SW480 and LoVo (ATCC) in comparison to lipofectin, PEI and pcTG90/DOPE (1:1) [+/−] 5.
# [3] = Liposome leakage assay, POPC liposomes containing calcein; settings: pH5 and pH7, 20 μg as starting point
# Description: Leakage activity was plotted against peptide concentration.
# The peptide ppTG1 was tested for its capacity to cause membrane disruption in a liposome leakage assay with POPC liposomes containing the fluorescent product calcein. […] Release of calcein by Triton X-100 treatment was taken as positive control reaction, incubation with water served as negative control. The membranolytic activity of peptide ppTG1 (20 μg as starting point) was compared with those of equal quantities (20 μg) of JTS-1, JTS-1-K13 and KALA.
# CHO cells = assay: Transfection in vitro, luciferase plasmid pTG11236; assay type: cell-based
# Description: (§1) A comparison of ppTG1 and KALA was carried out in HeLa and CHO cells. 5×10^4 cells were seeded on 24 well plates. The next day, cells were transfected with 500 ng and 50 ng of pTG11236, complexed with ppTG1 or KALA in 30 μl 0.9% NaCl. The charge ratio +/− varied from 1, 2, 3, 4, 7 to 10. Cells were harvested 20 h after transfection and lysis was obtained in 100 μl Promega lysis buffer. Luciferase activity and total protein concentrations in 20 μl were determined.
# HeLa cells [4] = assay: Transfection in vitro, luciferase plasmid pTG11236; assay type: cell-based
# Description: Cells were plated on 24 well plates at a density of 4×10^4 (293-EBNA ) or 7×10^4 (HeLa, Renca) cells/well in DMEM supplemented with 10% FCS. The next day, the medium was replaced by 200 μl serum-free DMEM and plasmid (pTG11056 or pTG11236)/peptide complexes or plasmid/peptide/lipid complexes were prepared in 30 μl 0.9% NaCl or 5% glucose. After 20 min at room temperature these complexes were added to the cells which were then incubated for 2-3 h at 37° C. and 5% CO2 before 1 ml serum-containing DMEM was added. Approximately 20-hours later, cells were lysed by addition of 100 μl 1× Promega lysis buffer, 20 μl of the lysates were analysed for luciferase activity. Proteins were quantified with the bicinchonic acid (BCA) colorimetric method (Smith, Anal. Biochem. 150 (1985), 76-85).
# In another experiment, 7×10^4 HeLa cells, seeded on 24-well plates the day before transfection, were transfected with 0.5 μg or 0.05 μg pTG11236, complexed with Lipofectin or ppTG1. The plasmid/peptide complexes were prepared in 30 μl of 5% glucose or 0.9% NaCl and added to the cells (200 μl serum-free medium) after 20 min at room temperature. Serum-containing medium was added after 3 h, the cells were harvested the next day.
# A comparison of the effect on transfection efficiency of ppTG1 and JTS-1-K13 was carried out in HeLa cells. Complexes of 0.5 μg or 0.05 μg pTG11236 were formed with increasing amounts the respective peptide.
# as §1
# HeLa cells were seeded at a density of 6×10^4 cells on 24 well plates. The next day, cells were incubated with 200 μl serum-free medium, 30 μl of plasmid (50 ng)/peptide/lipid mixtures were added and incubated for 3 h at 37° C. in 5% CO2. 1 ml of DMEM+10% FCS was then added. The next day, the medium was removed and cells were washed with 500 μl of PBS and subsequently treated with 100 μl of Promega lysis buffer. Plates were stored at −80° C. until luciferase activity was measured of 20 μl of the cell lysate. The protein assay was performed using the Pierce BCA kit.
# JTS1 was dissolved to 1 mg/ml in 1 mM NaOH and mixed with DNA diluted in 5% glucose. ppTG1 was then added to this solution. The pcTG90/DOPE ppTG1 mixtures were prepared as described in Example 6. Transfection assays were performed on HeLa cells with 50 ng of plasmid as described in Example 6.
# The series of ppTG1 derivatives listed in Material and Methods were tested for their gene transfer efficiencies in Hela cells. 6×10^4 cells were transfected with 50 ng pTG11236 complexed with increasing amounts of peptide. Luciferase activity was analyzed day 1 after transfection. The results are shown in FIG. 10B (ppTG20, ppTG21), FIG. 10C(ppTG25, ppTG26, ppTG27), FIG. 10D (ppTG28 to ppTG33), FIG. 10E (PEG-ppTG1 and PEG-ppTG20), FIG. 10F (ppTG22 to ppTG24) and FIG. 10G (ppTG20-D).
sequence,measurement,setting,value
GLFKALLKLLKSLWKLLLKA,effect of Bafilomycin A on transfection efficiency,HeLa cells [1],not diminished; also recorded: did not influence the transfection efficiency
same,transfection of human tumor cell lines,[2],"successfully transfected; also recorded: can efficiently transfect human tumor cell lines, especially SW480 cells"
same,membrane disruption (calcein release),[3],capable of causing membrane disruption
same,"more efficient than the complex comprising KALA, best case",CHO cells,2500 fold
same,more efficient in gene transfer than KALA,"CHO cells; 50 ng pTG11236, optimum charge ratios",68 fold
same,more efficient in gene transfer than KALA,"CHO cells; 500 ng pTG11236, optimum charge ratios",9 fold
same,luciferase activities,"HeLa cells [4]; 0.05 μg pTG11236, complexes in 0.9% NaCl",higher luciferase activities than observed for Lipofectin formulations
same,luciferase activities,"HeLa cells [4]; 0.5 μg or 0.05 μg pTG11236 with 1.17 μg or 0.117 μg ppTG1, charge ratio 1.8",comparable luciferase activities as observed for DNA formulated with Lipofectin
same,"more efficient than the complex comprising KALA, best case",HeLa cells [4]; HeLa,3000 fold
